According to patent US20090217393A1, “Growth Promoting Agent and Life Prolonging Agent” (B FOOD SCIENCE CO., LTD., priority 2005, published 2009):

Legend:
[1] = tested on: Crj:BDF1 mice (male); assay: Mouse breeding test; format: in vivo; conditions: feed containing 5% by mass of erythritol
Excerpt: Crj:BDF1 mice (male) were divided into a group fed with a feed containing 5% by mass of erythritol (erythritol-added group; the present invention) and a group fed with a feed containing no erythritol (no-erythritol-added group; control), and bred, followed by investigation of 50% survival times, 75% survival times, average survival times, survival rates, and maximum survival times.

[2] = tested on: Layers (white Plymouth Rock); assay: Layer growth test; format: in vivo; conditions: feed containing 5% by mass of erythritol
Method: Layers (white Plymouth Rock) were divided into a group fed with a feed containing 5% by mass of erythritol (erythritol-added group; the present invention) and a group fed with a feed containing no erythritol (no-erythritol-added group; control), and bred. The breeding was performed for 24 months, which was generally defined so as to generate economic benefits, and the survival rates were continuously watched. Meanwhile, average body weights (g) were continuously watched for four weeks.

[3] = tested on: Radish sprouts; assay: Radish sprout cultivation test; format: in vivo
Method: Radish sprouts were cultivated in 0.75% agar mediums containing erythritol, mannitol, and sorbitol each at concentrations of 0.05% by mass, 0.1% by mass, and 0.5% by mass as sugar alcohols, and in an agar medium containing no sugar alcohol (0%). 3 and 6 days after germination, the lengths of radish sprouts were measured.

[4] = tested on: Arabidopsis plants; assay: Arabidopsis plant cultivation test; format: in vivo; conditions: Murashige & Skoog medium containing 0.06% by mass of erythritol; vs control
Excerpt: Arabidopsis plants were separately inoculated into a Murashige & Skoog medium containing 0.06% by mass of erythritol (erythritol-added group; the present invention) and a medium containing no erythritol (no-erythritol-added group; control), followed by comparison of growth of the Arabidopsis plants.

[5] = tested on: yeast Saccharomyces cerevisiae; assay: Yeast culture test; format: cell-based; conditions: SD medium containing 0.006% by mass of erythritol
Method: A yeast Saccharomyces cerevisiae was cultured in an SD medium containing 0.006% by mass of erythritol (erythritol-added group; the present invention) and in an SD medium containing no erythritol (no-erythritol-added group; control). 27 hours later, absorbances at 660 nm were measured.

[6] = tested on: shiitake; assay: Mushroom (shiitake) cultivation test; format: in vivo; conditions: for Number of mushroom with pileus diameter of 5 cm or more: 8 days later, control 2
Method: A shiitake cultivation test was performed using a commercially available shiitake cultivation kit.
The cultivation kit is a product produced by hardening wood chips prepared by pulverizing broad-leaved tree, together with a nutritional supplement and a shiitake fungus into a block form. The blocks were separately immersed in aqueous solutions containing 0% by mass (no addition), 0.05% by mass, 0.5% by mass, and 5% by mass of erythritol, and the surfaces of the blocks were washed. Then, the blocks were placed in plastic bags to prevent drying, and the tops of the bags were closed with clothespins, followed by cultivation of the shiitake while adjusting the temperature to 23° C. during the daytime and to 8° C. during the nighttime. Whenever the surfaces of the blocks were dried, the surfaces of the blocks were moisturized using a spray with the aqueous solutions containing erythritol at the above-mentioned each concentration. 3 days later, the shiitake started to germinate on the blocks, and 8 days later, the diameter and number of each pileus of the shiitake were measured.

[7] = 0.05% by mass sugar alcohol in 0.75% agar medium, After 3 days
[8] = 0.05% by mass sugar alcohol in 0.75% agar medium, After 6 days
[9] = 0.1% by mass sugar alcohol in 0.75% agar medium, After 3 days
[10] = 0.1% by mass sugar alcohol in 0.75% agar medium, After 6 days
[11] = 0.5% by mass sugar alcohol in 0.75% agar medium, After 3 days
[12] = 0.5% by mass sugar alcohol in 0.75% agar medium, After 6 days

In the case of `OC[C@@H](O)[C@@H](O)CO` [erythritol], the 50% survival time ([1]; Crj:BDF1 male mice) is reported as 927 days, the 75% survival time ([1]; Crj:BDF1 male mice) is reported as 850 days and the Average survival time ([1]; Crj:BDF1 male mice) is reported as 768 days. The Maximum survival time ([1]; Crj:BDF1 male mice) was 1,080 days, the “50% survival time compared with control” value ([1]; vs no-erythritol-added group) was “prolonged” and the “75% survival time compared with control” value ([1]; vs no-erythritol-added group) was “prolonged”. The “average survival time compared with control” value ([1]; vs no-erythritol-added group) was “prolonged”, the “maximum survival time compared with control” value ([1]; vs no-erythritol-added group) was “no significant difference” and the “survival rate compared with control” value ([1]; vs no-erythritol-added group) was “prolonged”. The “survival rate compared with control” value ([2]; breeding for 24 months, FIG. 2) was “increased”, the “average body weight compared with control” value ([2]; watched for four weeks, FIG. 3) was “increased” and the “Lengths of radish sprouts” value [3, 7] was 46 mm. The “Lengths of radish sprouts” value [3, 8] was 109 mm, the “length of radish sprouts / growth promoting effect compared with no-sugar-alcohol-added group” value ([3]; 0.05 to 0.5% by mass in agar medium) was “particularly excellent growth promoting effects” and the “Lengths of radish sprouts” value [3, 9] was 30 mm. The “Lengths of radish sprouts” value [3, 10] was 76 mm, the “Lengths of radish sprouts” value [3, 11] was 31 mm and the “Lengths of radish sprouts” value [3, 12] was 87 mm. The “growth promoting effect on roots and leaves/stems” value [4] was “confirmed”, the yeast proliferation effect [5] was “confirmed” and the “absorbance at 660 nm” value ([5]; 27 hours later, control 2.65) was 2.88. The “sizes of the yeast cells larger than control” value ([5]; under a microscope) was “about 20%”, the “Number of mushroom with pileus diameter of 5 cm or more” value (“Number of mushroom” for short) ([6]; 0.05% by mass erythritol aqueous solution) was 8 and the “Number of mushroom” value ([6]; 0.5% by mass erythritol aqueous solution) was 5. For the same compound, the “Number of mushroom” value ([6]; 5.0% by mass erythritol aqueous solution) was 9 and the “numbers of mushrooms with a pileus diameter of 5 cm or more compared with control” value ([6]; all the concentrations (0.05, 0.5, 5% by mass)) was “significantly increase”.

With `OC[C@@H](O)[C@@H](O)[C@H](O)[C@H](O)CO` [mannitol] the “Lengths of radish sprouts” value [3, 7] was 15 mm, the “Lengths of radish sprouts” value [3, 8] was 59 mm and the “Lengths of radish sprouts” value [3, 9] was 29 mm. For the same compound, the “Lengths of radish sprouts” value [3, 10] was 61 mm, the “Lengths of radish sprouts” value [3, 11] was 24 mm and the “Lengths of radish sprouts” value [3, 12] was 55 mm.

`OC[C@@H](O)[C@@H](O)[C@H](O)[C@@H](O)CO` [sorbitol] was tested, and the “Lengths of radish sprouts” value [3, 7] was 30 mm, the “Lengths of radish sprouts” value [3, 8] was 68 mm and the “Lengths of radish sprouts” value [3, 9] was 31 mm. For the same compound, the “Lengths of radish sprouts” value [3, 10] was 64 mm, the “Lengths of radish sprouts” value [3, 11] was 27 mm and the “Lengths of radish sprouts” value [3, 12] was 52 mm.
